Consider 17 compounds from article PMC4604408, “Targeting the Parasite's DNA with Methyltriazenyl Purine Analogs Is a Safe, Selective, and Efficacious Antitrypanosomal Strategy” (Antimicrobial Agents and Chemotherapy, 2015).

The subject of data set [1] is T. brucei brucei WT (strain 427). The data set is described as follows: microbe, parasite or virus in culture. In kind it is cell-based. The settings on record: for SI, in vitro selectivity index: EC50(HEK)/EC50(T. brucei brucei WT); for EC50: Trypanosoma brucei, read-out: In vitro activity (EC50) T. brucei brucei WT.
Data set [2] has as its system HEK293 (human embryonic kidney 293T cells). The data set is described as follows: cells. The settings on record: read-out: In vitro activity (EC50) HEK293.
In data set [3] the test system is T. brucei brucei 427 tbat1^−/−. The data set is described as follows: microbe, parasite or virus in culture. In kind it is cell-based. The settings on record: for EC50: Trypanosoma brucei, read-out: In vitro activity (EC50) T. brucei brucei 427 tbat1^−/−.
A further data set relates to Tbb msh2-/-. The data set is described as follows: microbe, parasite or virus in culture. In kind it is cell-based, Trypanosoma brucei. The settings on record: for EC50: read-out: Tbb msh2-/- (EC50; µM) AVG.
The next data set deals with Tbb msh2+/+. The data set is described as follows: microbe, parasite or virus in culture. The data set is classed as cell-based, Trypanosoma brucei. The settings on record: read-out: Tbb msh2+/+ (EC50; µM) AVG.
For another data set, the system named is Tbb msh2+/-. Kind of data set: microbe, parasite or virus in culture. The data set is classed as cell-based, Trypanosoma brucei. The settings on record: read-out: Tbb msh2+/- (EC50; µM) AVG.
Data set [4] concerns the target T. brucei H2 (hypoxanthine transporter 2 of T. brucei brucei). In kind it is cell-based. To be noted: read-out: Transport (Ki value) T. brucei H2.
The subject of the next data set is P. falciparum K1 strain. The data set is described as follows: microbe, parasite or virus in culture. To be noted: Plasmodium falciparum, K1, read-out: Plasmodium falciparum EC50. The data set is classed as cell-based.
For data set [5], the system named is T. b. rhodesiense STIB 900. The data set is described as follows: microbe, parasite or virus in culture. In kind it is cell-based. The settings on record: Trypanosoma brucei, read-out: Trypanosoma brucei rhodesiense EC50.
For data set [6], the target named is T. brucei H2 (hypoxanthine transporter 2 of T. brucei brucei). More on the design: method as in PMID 9364969. The settings on record: natural substrates; read-out: Transport (Ki value) T. brucei H2; cited from earlier work.
Another data set is described as follows: physchem. To be noted: buffer.
Data set [7] relates to bloodstream-form T. brucei. Kind of data set: potency in Creek's minimal medium with inosine or hypoxanthine as purine source. The data set is classed as cell-based. To be noted: Creek's minimal medium, same concentration of inosine or hypoxanthine.
The subject of data set [8] is HEK293 (human embryonic kidney 293T cells).
Where [9] appears, read: inhibition of 0.05 μM [3H]hypoxanthine uptake, 60 s, mean ± SEM, n ≥ 3.

Like-named read-outs stand apart in the source and are kept apart here.

Consider `CN(N=Nc1nc(N)c2[nH]cnc2n1)C(=O)Oc1ccc([N+](=O)[O-])cc1` [Compound 7], for which the “SI, in vitro selectivity index” value in data set [1] is listed as greater than 13. The EC50 in data set [1] was 19.4 ± 4.1 µM; in data set [2] it was greater than 250 µM; in data set [3], 20.7 ± 4.6 µM.
In the case of `Cn1nnc2c(C(N)=O)ncn2c1=O` [TMZ, temozolomide], the “potency against cells with impaired or lost MSH2 activity” value in the data set on Tbb msh2-/- is “reduced potency”. Moreover, the results for the EC50 in the data set with Tbb msh2-/- (Trypanosoma brucei), in the data set with Tbb msh2+/+ (Trypanosoma brucei) and with Tbb msh2+/- (Trypanosoma brucei) were 173 µM, 95 µM and 204 µM, respectively.
For orientation: Ki means the equilibrium dissociation constant of an inhibitor or competing ligand from its target. For `CC(=O)N(C)/N=N/c1nc(OCc2ccccc2)c2nc[nH]c2n1` [Compound 9], the inhibitory constant (Ki) in data set [4] came to 5.8 ± 0.01 µM.
Take `CN(/N=N/c1nc(OCc2ccccc2)c2nc[nH]c2n1)C(=O)Oc1ccccc1` [Compound 10]: the EC50 was greater than 10 µM in the data set on P. falciparum K1 strain and 8.9 µM in data set [5]. Further, the Ki in [4] (setting [9]) is 22.5 ± 9.2 µM.
As to `N.N.[Cl][Pt][Cl]` [Cisplatin], the EC50 came to 13.6 µM with Tbb msh2-/-, 13.4 µM in the data set on Tbb msh2+/+ and 17.7 µM with Tbb msh2+/-.
As to `O=c1[nH]cnc2nc[nH]c12` [Hypoxanthine], in data set [6], the inhibitory constant (Ki) was 0.12 ± 0.03 µM.
Turning to `N=C(N)c1ccc(/N=N/Nc2ccc(C(=N)N)cc2)cc1` [DIM, diminazene, reference compound], the EC50 with Tbb msh2-/- (Trypanosoma brucei) amounted to 0.68 µM; with Tbb msh2+/+ (Trypanosoma brucei), 0.5 µM; with Tbb msh2+/- (Trypanosoma brucei), 0.64 µM; in data set [1], 0.26 ± 0.05 µM; in [3], 7.9 ± 0.7 µM. Also, the “fold lower activity against tbat1^−/− cells than wild type” value in [3] (tbat1^−/− versus wild-type) was determined as 30 fold.
Regarding `Nc1nc2nc[nH]c2c(=O)[nH]1` [Guanine], in [6], the Ki is 0.36 ± 0.18 µM.
As a reminder, the half-life is the time in which the quantity being followed falls by half. With `CN(N=Nc1nc(O)c2[nH]cnc2n1)C(=O)Oc1ccccc1` [Compound 2], the “potency against cells with impaired or lost MSH2 activity” value in the data set on Tbb msh2-/- was “reduced potency”. Also, the EC50 in the data set on Tbb msh2-/- (Trypanosoma brucei) is 6.8 µM; in the data set with Tbb msh2+/+ (Trypanosoma brucei) it was 2.3 µM; with Tbb msh2+/- (Trypanosoma brucei), 4.3 µM; in data set [1] it was 0.8 ± 0.07 µM; in data set [2], greater than 250 µM; in data set [3], 1.21 ± 0.19 µM. In addition, the “SI, in vitro selectivity index” value in data set [1] is greater than 312. In addition, the Ki in data set [4] (setting [9]) was found to be 0.2 ± 0.06 µM. In “physchem”, this compound showed a half-life at 50 µM of 5.6 ± 0.3 h.
Regarding `Nc1ncnc2[nH]cnc12` [Adenine], the inhibition constant Ki in data set [6] was 3.2 ± 1.1 µM.
On to `CN(N=Nc1nc(O)c2[nH]cnc2n1)C(=O)Oc1ccc([N+](=O)[O-])cc1` [Compound 4], for which, in data set [1], the “antitrypanosomal potency against BF T. brucei in vitro (in words)” value is listed as “practically lost antitrypanosomal activity”; the “SI, in vitro selectivity index” value was greater than 2; the EC50 was found to be 114 ± 34 µM. For the same compound, the EC50 in data set [2] is greater than 250 µM. For the same compound, the EC50 in [3] turned out to be 157 ± 55 µM.
Take `CN(N=Nc1nc(N)c2[nH]cnc2n1)C(=O)Oc1ccccc1` [Compound 6]: in [1], the “SI, in vitro selectivity index” value is on record as greater than 24. Further, the EC50 in data set [1] was 10.4 ± 0.5 µM; in [2], greater than 100 µM; in data set [3], 10.7 ± 0.4 µM. For the same compound, the inhibition constant (Ki) in data set [4] (setting [9]) amounted to 0.46 ± 0.08 µM.
Consider `COS(C)(=O)=O` [MMS, methyl methanesulfonate], for which the EC50 in the data set with Tbb msh2-/- (Trypanosoma brucei) came out at 46.7 µM; in the data set on Tbb msh2+/+ (Trypanosoma brucei), 48.9 µM; with Tbb msh2+/- (Trypanosoma brucei), 57.2 µM.
As to `Cc1ccc(C(=O)Nc2ccc(S(=O)(=O)O)c3cc(S(=O)(=O)O)cc(S(=O)(=O)O)c23)cc1NC(=O)c1cccc(NC(=O)Nc2cccc(C(=O)Nc3cc(C(=O)Nc4ccc(S(=O)(=O)O)c5cc(S(=O)(=O)O)cc(S(=O)(=O)O)c45)ccc3C)c2)c1` [suramin], the “sensitivity (EC50) in medium with inosine compared to hypoxanthine as purine source” value in [7] is listed as “not significantly different”.
Consider `N=C(N)c1ccc(OCCCCCOc2ccc(C(=N)N)cc2)cc1` [Pentamidine], for which the EC50 with Tbb msh2-/- (Trypanosoma brucei) came to 0.004 µM; in the data set on Tbb msh2+/+ (Trypanosoma brucei) it was 0.011 µM; with Tbb msh2+/- (Trypanosoma brucei), 0.011 µM. In addition, in data set [7], the “sensitivity (EC50) in medium with inosine compared to hypoxanthine as purine source” value is recorded as “not significantly different”.
For the compound `O=C(NN=Nc1nc(O)c2[nH]cnc2n1)Oc1ccccc1` [Compound 5], the EC50 in the data set on Tbb msh2-/- (Trypanosoma brucei) is 168 µM; in the data set on Tbb msh2+/+ (Trypanosoma brucei), 192 µM; with Tbb msh2+/- (Trypanosoma brucei) it was 166 µM; in data set [1], greater than 100 µM; in data set [2], greater than 250 µM; in [3] it was greater than 100 µM. The “toxicity to HEK293T cells (in words)” value in [8] is “did not show any toxic effects”. Further, the “antitrypanosomal potency against BF T. brucei in vitro (in words)” value in [1] is “did not show any toxic effects”. For the same compound, the Ki in data set [4] (setting [9]) came out at 0.09 ± 0.02 µM.
For the compound `CCOC(=O)N(C)/N=N/c1nc(O)c2nc[nH]c2n1` [Compound 3], the “SI, in vitro selectivity index” value in data set [1] is greater than 136. Also, the EC50 is 1.84 ± 0.08 µM in [1], greater than 250 µM in [2] and 2.86 ± 0.13 µM in [3]. In addition, the Ki in [4] worked out at 0.12 ± 0.03 µM.
